Source: article PMC6429214, “Design, Synthesis and Biological Evaluation of Isoxazole-Based CK1 Inhibitors Modified with Chiral Pyrrolidine Scaffolds” (Molecules, 2019)

Key:
Assay in all cases: 33PanQinase panel
Type in all cases: biochemical
AKT1 aa106-480 = target: T1, AKT1 aa106-480 (Homo sapiens, UniProt P31749); details: AKT1 aa106-480, 1 µM; read-out: Residual Activity (%)
T1 construct: purchased ProQinase
Method in brief: (§1)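 1 µM inhibitor; 1% DMSO final; radiometric 33P activity read; result = % residual activity vs DMSO ctrl; 320 wt kinases screened.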

Aurora-A = target: T2, Aurora-A (Homo sapiens, UniProt O14965); details: read-out: Residual Activity (%)
T2 construct: purchased ProQinase
Method in brief: as §1

BRK = target: T3, BRK (Homo sapiens, UniProt Q13882); details: read-out: Residual Activity (%)
T3 construct: purchased ProQinase
Method in brief: as §1

CDC7/DBF4 = target: T4, CDC7/DBF4 (Homo sapiens, UniProt O00311); details: CDC7/DBF4, 1 µM; read-out: Residual Activity (%)
T4 construct: purchased ProQinase
Method in brief: as §1

CDK1/CycE1 = target: T5, CDK1/CycE1 (Homo sapiens, UniProt P06493); details: CDK1/CycE1, 1 µM; read-out: Residual Activity (%)
T5 construct: purchased ProQinase
Method in brief: as §1

CK2-alpha1 = target: T6, CK2-alpha1 (Homo sapiens, UniProt P68400); details: CK2-alpha1, 1 µM; read-out: Residual Activity (%)
T6 construct: purchased ProQinase
Method in brief: as §1

DAPK2 = target: T7, DAPK2 (Homo sapiens, UniProt Q9UIK4); details: DAPK2, 1 µM; read-out: Residual Activity (%)
T7 construct: purchased ProQinase
Method in brief: as §1

EPHA4 = target: T8, EPHA4 (Homo sapiens, UniProt P54764); details: EPHA4, 1 µM; read-out: Residual Activity (%)
T8 construct: purchased ProQinase
Method in brief: as §1

EPHB1 = target: T9, EPHB1 (Homo sapiens, UniProt P54762); details: EPHB1, 1 µM; read-out: Residual Activity (%)
T9 construct: purchased ProQinase
Method in brief: as §1

GRK2 = target: T10, GRK2 (Homo sapiens, UniProt P25098); details: GRK2, 1 µM; read-out: Residual Activity (%)
T10 construct: purchased ProQinase
Method in brief: as §1

GRK4 = target: T11, GRK4 (Homo sapiens, UniProt P32298); details: GRK4, 1 µM; read-out: Residual Activity (%)
T11 construct: purchased ProQinase
Method in brief: as §1

JNK1 = target: T12, JNK1 (Homo sapiens, UniProt P45983); details: JNK1, 1 µM; read-out: Residual Activity (%)
T12 construct: purchased ProQinase
Method in brief: as §1

JNK2 = target: T13, JNK2 (Homo sapiens, UniProt P45984); details: JNK2, 1 µM; read-out: Residual Activity (%)
T13 construct: purchased ProQinase
Method in brief: as §1

MAPKAPK5 = target: T14, MAPKAPK5 (Homo sapiens, UniProt Q8IW41); details: MAPKAPK5, 1 µM; read-out: Residual Activity (%)
T14 construct: purchased ProQinase
Method in brief: as §1

MEK5 = target: T15, MEK5 (Homo sapiens, UniProt Q13163); details: MEK5, 1 µM; read-out: Residual Activity (%)
T15 construct: purchased ProQinase
Method in brief: as §1

PAK3 = target: T16, PAK3 (Homo sapiens, UniProt O75914); details: PAK3, 1 µM; read-out: Residual Activity (%)
T16 construct: purchased ProQinase
Method in brief: as §1

PAK4 = target: T17, PAK4 (Homo sapiens, UniProt O96013); details: PAK4, 1 µM; read-out: Residual Activity (%)
T17 construct: purchased ProQinase
Method in brief: as §1

PDGFR-beta = target: T18, PDGFR-beta (Homo sapiens, UniProt P09619); details: read-out: Residual Activity (%)
T18 construct: purchased ProQinase
Method in brief: as §1

PIM3 = target: T19, PIM3 (Homo sapiens, UniProt Q86V86); details: PIM3, 1 µM; read-out: Residual Activity (%)
T19 construct: purchased ProQinase
Method in brief: as §1

PKC-delta = target: T20, PKC-delta (Homo sapiens, UniProt Q05655); details: read-out: Residual Activity (%)
T20 construct: purchased ProQinase
Method in brief: as §1

PKC-iota = target: T21, PKC-iota (Homo sapiens, UniProt P41743); details: read-out: Residual Activity (%)
T21 construct: purchased ProQinase
Method in brief: as §1

ROS = target: T22, ROS (Homo sapiens, UniProt P08922); details: read-out: Residual Activity (%)
T22 construct: purchased ProQinase
Method in brief: as §1

SLK = target: T23, SLK (Homo sapiens, UniProt Q9H2G2); details: read-out: Residual Activity (%)
T23 construct: purchased ProQinase
Method in brief: as §1

TBK1 = target: T24, TBK1 (Homo sapiens, UniProt Q9UHD2); details: TBK1, 1 µM; read-out: Residual Activity (%)
T24 construct: purchased ProQinase
Method in brief: as §1

TIE2 = target: T25, TIE2 (Homo sapiens, UniProt Q02763); details: TIE2, 1 µM; read-out: Residual Activity (%)
T25 construct: purchased ProQinase
Method in brief: as §1

TTK = target: T26, TTK (Homo sapiens, UniProt P33981); details: read-out: Residual Activity (%)
T26 construct: purchased ProQinase
Method in brief: as §1

VEGF-R1 = target: T27, VEGF-R1 (Homo sapiens, UniProt P17948); details: VEGF-R1, 1 µM; read-out: Residual Activity (%)
T27 construct: purchased ProQinase
Method in brief: as §1

ZAP70 = target: T28, ZAP70 (Homo sapiens, UniProt P43403); details: ZAP70, 1 µM; read-out: Residual Activity (%)
T28 construct: purchased ProQinase
Method in brief: as §1

p38-delta = target: T29, p38-delta (Homo sapiens, UniProt O15264); details: read-out: Residual Activity (%)
T29 construct: purchased ProQinase
Method in brief: as §1

T3 sequence (Q13882 whole entry): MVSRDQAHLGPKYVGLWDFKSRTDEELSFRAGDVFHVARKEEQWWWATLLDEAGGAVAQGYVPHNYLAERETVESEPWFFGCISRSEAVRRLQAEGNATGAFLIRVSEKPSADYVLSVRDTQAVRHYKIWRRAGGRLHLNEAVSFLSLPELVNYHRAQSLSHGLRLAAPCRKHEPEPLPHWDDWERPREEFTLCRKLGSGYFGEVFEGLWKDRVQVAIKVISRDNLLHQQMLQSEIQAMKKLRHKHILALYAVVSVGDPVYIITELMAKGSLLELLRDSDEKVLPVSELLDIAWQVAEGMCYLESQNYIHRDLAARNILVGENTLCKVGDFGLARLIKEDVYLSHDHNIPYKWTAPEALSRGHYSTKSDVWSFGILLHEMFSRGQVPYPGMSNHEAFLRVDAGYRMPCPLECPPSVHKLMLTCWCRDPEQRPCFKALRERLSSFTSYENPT
T15 sequence (Q13163 whole entry): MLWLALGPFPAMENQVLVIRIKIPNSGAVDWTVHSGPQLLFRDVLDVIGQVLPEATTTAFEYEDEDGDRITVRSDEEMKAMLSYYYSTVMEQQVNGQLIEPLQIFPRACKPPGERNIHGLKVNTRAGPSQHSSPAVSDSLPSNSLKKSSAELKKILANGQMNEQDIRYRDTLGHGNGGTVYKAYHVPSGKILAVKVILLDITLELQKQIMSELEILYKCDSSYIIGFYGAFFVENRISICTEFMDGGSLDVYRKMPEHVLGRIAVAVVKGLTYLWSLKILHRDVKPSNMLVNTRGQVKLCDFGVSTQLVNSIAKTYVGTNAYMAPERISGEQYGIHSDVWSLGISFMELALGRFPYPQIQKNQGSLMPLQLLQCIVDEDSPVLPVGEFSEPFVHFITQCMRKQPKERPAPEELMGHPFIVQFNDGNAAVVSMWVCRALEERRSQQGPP
T27 sequence (P17948 27-1338): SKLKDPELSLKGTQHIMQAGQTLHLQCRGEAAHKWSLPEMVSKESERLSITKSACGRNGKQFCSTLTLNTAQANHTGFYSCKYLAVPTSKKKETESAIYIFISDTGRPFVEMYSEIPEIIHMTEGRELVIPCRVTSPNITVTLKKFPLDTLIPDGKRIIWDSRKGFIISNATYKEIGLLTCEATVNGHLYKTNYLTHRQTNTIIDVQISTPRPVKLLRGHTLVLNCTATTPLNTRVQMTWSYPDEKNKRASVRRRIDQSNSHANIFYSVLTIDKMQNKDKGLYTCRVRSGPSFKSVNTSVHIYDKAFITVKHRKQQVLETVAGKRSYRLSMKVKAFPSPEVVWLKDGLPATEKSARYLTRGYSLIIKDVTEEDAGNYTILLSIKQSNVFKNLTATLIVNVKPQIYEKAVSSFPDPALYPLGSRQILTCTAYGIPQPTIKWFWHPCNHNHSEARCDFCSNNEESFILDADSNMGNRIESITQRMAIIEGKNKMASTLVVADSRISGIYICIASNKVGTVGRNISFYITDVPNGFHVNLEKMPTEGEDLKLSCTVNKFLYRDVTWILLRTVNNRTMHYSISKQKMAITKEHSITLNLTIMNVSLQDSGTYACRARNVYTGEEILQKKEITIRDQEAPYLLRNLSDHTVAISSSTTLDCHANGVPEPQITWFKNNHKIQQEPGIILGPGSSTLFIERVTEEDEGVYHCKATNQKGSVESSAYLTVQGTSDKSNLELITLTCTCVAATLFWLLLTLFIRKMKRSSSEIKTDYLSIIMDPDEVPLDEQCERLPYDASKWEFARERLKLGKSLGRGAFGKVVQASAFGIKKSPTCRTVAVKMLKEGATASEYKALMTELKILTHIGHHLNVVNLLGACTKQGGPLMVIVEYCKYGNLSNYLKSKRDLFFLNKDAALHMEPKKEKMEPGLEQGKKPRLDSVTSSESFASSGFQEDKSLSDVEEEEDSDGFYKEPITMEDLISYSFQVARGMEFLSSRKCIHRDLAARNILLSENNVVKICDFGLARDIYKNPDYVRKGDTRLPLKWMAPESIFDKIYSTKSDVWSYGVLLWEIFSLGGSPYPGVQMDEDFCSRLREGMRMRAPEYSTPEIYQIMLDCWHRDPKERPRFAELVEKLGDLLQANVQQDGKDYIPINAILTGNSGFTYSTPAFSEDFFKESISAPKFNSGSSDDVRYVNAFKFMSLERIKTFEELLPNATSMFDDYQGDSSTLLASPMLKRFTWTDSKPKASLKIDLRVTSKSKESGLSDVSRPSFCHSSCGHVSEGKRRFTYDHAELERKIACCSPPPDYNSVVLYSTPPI
T13 sequence (P45984 whole entry): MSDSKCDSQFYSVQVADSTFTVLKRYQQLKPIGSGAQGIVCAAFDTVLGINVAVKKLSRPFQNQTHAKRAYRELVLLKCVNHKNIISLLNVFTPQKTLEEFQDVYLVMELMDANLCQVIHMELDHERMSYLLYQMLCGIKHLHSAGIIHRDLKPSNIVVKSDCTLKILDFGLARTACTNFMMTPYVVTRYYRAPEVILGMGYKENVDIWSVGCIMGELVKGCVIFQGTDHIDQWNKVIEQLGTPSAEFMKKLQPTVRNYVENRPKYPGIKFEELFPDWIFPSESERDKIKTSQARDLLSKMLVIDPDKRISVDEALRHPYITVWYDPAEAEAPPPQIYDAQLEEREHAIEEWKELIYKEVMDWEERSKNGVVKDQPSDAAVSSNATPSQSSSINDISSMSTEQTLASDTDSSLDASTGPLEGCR
T25 sequence (Q02763 23-1124): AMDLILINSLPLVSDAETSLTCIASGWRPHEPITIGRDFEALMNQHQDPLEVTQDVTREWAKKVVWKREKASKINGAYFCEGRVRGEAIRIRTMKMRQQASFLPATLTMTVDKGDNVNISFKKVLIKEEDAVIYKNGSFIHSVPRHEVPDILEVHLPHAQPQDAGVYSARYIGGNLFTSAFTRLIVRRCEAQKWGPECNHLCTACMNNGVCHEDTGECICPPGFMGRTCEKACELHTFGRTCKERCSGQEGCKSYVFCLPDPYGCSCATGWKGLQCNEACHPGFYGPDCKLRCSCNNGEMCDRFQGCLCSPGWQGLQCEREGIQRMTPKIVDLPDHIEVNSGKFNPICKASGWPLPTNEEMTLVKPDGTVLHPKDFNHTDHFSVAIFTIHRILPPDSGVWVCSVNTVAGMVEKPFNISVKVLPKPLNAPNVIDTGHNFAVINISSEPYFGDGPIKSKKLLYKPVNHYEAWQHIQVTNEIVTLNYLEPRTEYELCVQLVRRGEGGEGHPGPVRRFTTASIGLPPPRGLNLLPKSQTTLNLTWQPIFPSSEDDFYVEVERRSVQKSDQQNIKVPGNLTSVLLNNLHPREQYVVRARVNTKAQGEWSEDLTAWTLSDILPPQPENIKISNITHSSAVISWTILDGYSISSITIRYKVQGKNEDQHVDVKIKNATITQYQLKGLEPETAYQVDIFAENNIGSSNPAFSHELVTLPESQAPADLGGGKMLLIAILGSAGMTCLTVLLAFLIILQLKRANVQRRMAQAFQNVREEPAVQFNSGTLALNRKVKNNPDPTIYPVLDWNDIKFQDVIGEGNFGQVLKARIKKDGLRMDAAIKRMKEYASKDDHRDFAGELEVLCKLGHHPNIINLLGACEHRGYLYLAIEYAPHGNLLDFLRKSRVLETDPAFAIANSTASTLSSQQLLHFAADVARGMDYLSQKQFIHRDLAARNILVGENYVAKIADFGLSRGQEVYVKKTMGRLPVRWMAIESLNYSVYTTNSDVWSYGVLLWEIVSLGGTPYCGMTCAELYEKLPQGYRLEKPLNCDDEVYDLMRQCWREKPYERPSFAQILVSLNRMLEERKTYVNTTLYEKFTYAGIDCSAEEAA
T16 sequence (O75914 whole entry): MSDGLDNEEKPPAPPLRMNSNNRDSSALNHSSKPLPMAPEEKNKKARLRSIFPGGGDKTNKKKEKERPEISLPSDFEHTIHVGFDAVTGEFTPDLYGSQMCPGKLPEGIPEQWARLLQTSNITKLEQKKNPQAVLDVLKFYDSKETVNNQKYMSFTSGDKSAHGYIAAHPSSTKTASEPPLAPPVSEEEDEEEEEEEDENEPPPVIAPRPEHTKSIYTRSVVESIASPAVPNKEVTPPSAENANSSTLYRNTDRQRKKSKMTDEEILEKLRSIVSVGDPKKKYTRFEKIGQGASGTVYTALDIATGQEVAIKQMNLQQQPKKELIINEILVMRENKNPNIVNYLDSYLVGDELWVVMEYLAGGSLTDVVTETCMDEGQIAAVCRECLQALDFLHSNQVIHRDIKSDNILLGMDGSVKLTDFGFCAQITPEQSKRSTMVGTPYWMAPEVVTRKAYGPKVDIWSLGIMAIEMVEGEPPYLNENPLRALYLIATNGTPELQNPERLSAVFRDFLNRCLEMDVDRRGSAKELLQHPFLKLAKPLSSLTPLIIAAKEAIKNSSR
T7 sequence (Q9UIK4 whole entry): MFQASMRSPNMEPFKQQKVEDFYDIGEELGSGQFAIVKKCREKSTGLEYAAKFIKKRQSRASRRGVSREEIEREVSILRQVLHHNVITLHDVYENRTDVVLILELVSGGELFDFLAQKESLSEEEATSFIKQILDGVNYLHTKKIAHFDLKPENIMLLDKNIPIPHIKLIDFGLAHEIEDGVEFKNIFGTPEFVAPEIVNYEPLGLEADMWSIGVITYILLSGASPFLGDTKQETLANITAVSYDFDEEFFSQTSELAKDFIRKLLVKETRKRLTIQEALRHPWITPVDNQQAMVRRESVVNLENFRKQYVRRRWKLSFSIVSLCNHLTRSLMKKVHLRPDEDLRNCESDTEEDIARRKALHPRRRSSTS
T29 sequence (O15264 whole entry): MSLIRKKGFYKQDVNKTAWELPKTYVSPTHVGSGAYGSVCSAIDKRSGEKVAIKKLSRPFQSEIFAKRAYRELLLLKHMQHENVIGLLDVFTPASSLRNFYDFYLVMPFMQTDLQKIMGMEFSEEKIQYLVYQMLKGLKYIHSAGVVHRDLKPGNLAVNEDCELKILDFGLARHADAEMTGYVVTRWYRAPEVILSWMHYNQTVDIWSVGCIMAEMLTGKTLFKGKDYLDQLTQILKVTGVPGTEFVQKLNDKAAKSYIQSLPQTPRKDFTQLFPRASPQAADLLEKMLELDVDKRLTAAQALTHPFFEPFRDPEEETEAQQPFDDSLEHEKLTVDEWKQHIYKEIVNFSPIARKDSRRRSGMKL

COc1ccc(-c2cc(C(=O)Nc3cc(-c4c(-c5ccc(F)cc5)noc4C(C)C)ccn3)n(CC3NCC(O)C3O)c2)cc1 (centres unmarked) [29d]
remaining activity at 1 µM (AKT1 aa106-480): 84% | remaining activity at 1 µM (Aurora-A): 103% | remaining activity at 1 µM (BRK): 131% | remaining activity at 1 µM (CDC7/DBF4): 94% | remaining activity at 1 µM (CDK1/CycE1): 100% | remaining activity at 1 µM (CK2-alpha1): 103% | remaining activity at 1 µM (DAPK2): 96% | remaining activity at 1 µM (EPHA4): 100% | remaining activity at 1 µM (EPHB1): 108% | remaining activity at 1 µM (GRK2): 87% | remaining activity at 1 µM (GRK4): 111% | remaining activity at 1 µM (JNK1): 63% | remaining activity at 1 µM (JNK2): 40% | remaining activity at 1 µM (MAPKAPK5): 110% | remaining activity at 1 µM (MEK5): 110% | remaining activity at 1 µM (PAK3): 81% | remaining activity at 1 µM (PAK4): 92% | remaining activity at 1 µM (PDGFR-beta): 91% | remaining activity at 1 µM (PIM3): 98% | remaining activity at 1 µM (PKC-delta): 100% | remaining activity at 1 µM (PKC-iota): 88% | remaining activity at 1 µM (ROS): 88% | remaining activity at 1 µM (SLK): 114% | remaining activity at 1 µM (TBK1): 113% | remaining activity at 1 µM (TIE2): 110% | remaining activity at 1 µM (TTK): 100% | remaining activity at 1 µM (VEGF-R1): 119% | remaining activity at 1 µM (ZAP70): 116% | remaining activity at 1 µM (p38-delta): 99%
